Laboratory results: US20120157451A1, “RAF INHIBITOR COMPOUNDS AND METHODS OF USE THEREOF” (GENENTECH, INC, priority 2009, published 2012)

Key:
[1] = system: basal ERK1/2 phosphorylation in Malme-3M cells; assay: Cellular ERK 1/2 phosphorylation assay; type: cell-based; conditions: Homo sapiens, 1 hour incubation, pERK normalized to total ERK, representative data of multiple tests
Experimental: Inhibition of basal ERK1/2 phosphorylation was determined by the following in vitro […], which comprises incubating cells with a compound of Formula I for 1 hour and quantifying the fluorescent pERK signal on fixed cells and normalizing to total ERK signal.
Materials and Methods: Malme-3M cells were obtained from ATCC and grown in RPMI-1640 supplemented with 10% fetal bovine serum. Cells were plated in 96-well plates at 24,000 cells/well and allowed to attach for 16-20 hours at 37° C., 5% CO2. The media was removed, and DMSO-diluted compounds were added in RPMI-1640 at a final concentration of 1% DMSO. The cells were incubated with the compounds for 1 hour at 37° C., 5% CO2. The cells were washed with PBS and fixed in 3.7% formaldehyde in PBS for 15 minutes. This was followed by washing in PBS/0.05% Tween20 and permeabilizing in −20° C. 100% MeOH for 15 minutes. Cells were washed in PBS/0.05% Tween20 then blocked in Odyssey blocking buffer (LI-COR Biosciences) for 1 hour. Antibodies to phosphorylated ERK (1:400, Cell Signaling #9106, monoclonal) and total ERK (1:400, Santa Cruz Biotechnology #sc-94, polyclonal) were added to the cells and incubated 16-20 hours at 4° C. After washing with PBS/0.05% Tween20, the cells were incubated with fluorescently-labeled secondary antibodies (1:1000 goat anti-rabbit IgG-IRDye800, Rockland and 1:500 goat anti-mouse IgG-Alexa Fluor 680, Molecular Probes) for an additional hour. Cells were then washed and analyzed for fluorescence at both wavelengths using the Odyssey Infrared Imaging System (LI-COR Biosciences). Phosphorylated ERK signal was normalized to total ERK signal.

V600E full-length B-Raf = target: T1, V600E full-length B-Raf (Homo sapiens, UniProt P15056, V600E); assay: B-Raf IC50 assay (incorporation of radiolabeled phosphate from [γ-33P]ATP into FSBA-modified wild-type MEK); type: biochemical
T1 construct: made in house; host or cells: Sf9 insect cells (baculovirus)
Excerpt: Determining the activity of Raf in the sample is possible by a number of direct and indirect detection methods (US 2004/0082014). Activity of human recombinant B-Raf protein may be assessed in vitro by assay of the incorporation of radio labeled phosphate to recombinant MAP kinase (MEK), a known physiologic substrate of B-Raf, according to US 2004/0127496 and WO 03/022840.
Activity of human recombinant B-Raf protein may be assessed in vitro by assay of the incorporation of radio labeled phosphate to recombinant MAP kinase (MEK), a known physiologic substrate of B-Raf, according to US 2004/0127496 and WO 03/022840. Catalytically active human recombinant B-Raf protein is obtained by purification from sf9 insect cells infected with a human B-Raf recombinant baculovirus expression vector.
Incubations were carried out at 22° C. in a Costar 3365 plate (Corning). Prior to the assay, the B-Raf and FSBA-MEK were preincubated together in assay buffer at 1.5× (20 μL of 30 nM and 1.5 μM, respectively) for 15 minutes, and the assay was initiated by the addition of 10 μL of 10 μM ATP. Following the 60-minute incubation, the assay mixtures were quenched by the addition of 100 μL of 25% TCA, the plate was mixed on a rotary shaker for 1 minute, and the product was captured on a Perkin-Elmer GF/B filter plate using a Tomtec Mach III Harvester. After sealing the bottom of the plate, […] of Bio-Safe II (Research Products International) scintillation cocktail were added to each well and the plate was top-sealed and counted in a Topcount NXT (Packard).

[2] = 4 μM ATP, 60-minute incubation, representative data of multiple tests

T1 sequence (P15056 whole entry V600E): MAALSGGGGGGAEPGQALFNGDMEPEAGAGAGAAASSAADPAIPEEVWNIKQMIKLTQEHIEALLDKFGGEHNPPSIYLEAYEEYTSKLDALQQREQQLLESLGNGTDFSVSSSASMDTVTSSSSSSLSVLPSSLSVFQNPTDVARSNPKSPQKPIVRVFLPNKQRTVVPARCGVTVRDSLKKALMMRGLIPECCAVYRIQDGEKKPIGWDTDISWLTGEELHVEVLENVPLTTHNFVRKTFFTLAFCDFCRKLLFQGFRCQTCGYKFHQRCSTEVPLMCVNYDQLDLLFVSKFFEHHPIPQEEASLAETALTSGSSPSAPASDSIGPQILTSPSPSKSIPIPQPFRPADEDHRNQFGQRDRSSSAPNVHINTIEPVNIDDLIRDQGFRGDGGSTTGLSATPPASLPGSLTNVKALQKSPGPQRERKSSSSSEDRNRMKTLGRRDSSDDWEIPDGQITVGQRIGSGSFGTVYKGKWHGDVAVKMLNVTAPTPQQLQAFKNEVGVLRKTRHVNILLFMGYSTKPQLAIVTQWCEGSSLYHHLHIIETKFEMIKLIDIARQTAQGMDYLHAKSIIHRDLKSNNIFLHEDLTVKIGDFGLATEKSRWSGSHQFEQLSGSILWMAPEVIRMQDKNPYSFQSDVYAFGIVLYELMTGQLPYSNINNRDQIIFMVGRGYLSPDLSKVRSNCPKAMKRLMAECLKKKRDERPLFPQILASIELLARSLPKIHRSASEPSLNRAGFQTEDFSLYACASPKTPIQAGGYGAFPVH

SMILES: CCCS(=O)(=O)Nc1ccc(F)c(C(=O)Nc2cnc3cc(OC)nn3c2)c1F [Example 1, 2,6-difluoro-N-(2-methoxypyrazolo[1,5-a]pyrimidin-6-yl)-3-(propylsulfonamido)benzamide]
- IC50 [1]: 68.8 nM
- IC50 (V600E full-length B-Raf; [2]): 53.2 nM
- IC50 (V600E full-length B-Raf; bound stated): < 150 nM

SMILES: CCCS(=O)(=O)Nc1ccc(F)c(C(=O)Nc2cnc3cc(-c4ccccc4)nn3c2)c1F [Example 5, 2,6-difluoro-N-(2-phenylpyrazolo[1,5-a]pyrimidin-6-yl)-3-(propylsulfonamido)benzamide]
- IC50 [1]: 13.9 nM

SMILES: CCCS(=O)(=O)Nc1ccc(F)c(C(=O)Nc2cnc3cc(-c4cccnc4)nn3c2)c1F [Example 10, 2,6-difluoro-3-(propylsulfonamido)-N-(2-(pyridin-3-yl)pyrazolo[1,5-a]pyrimidin-6-yl)benzamide]
- IC50 [1]: 26.7 nM
- IC50 (V600E full-length B-Raf; [2]): 14.7 nM
- IC50 (V600E full-length B-Raf; bound stated): < 150 nM

SMILES: CCCS(=O)(=O)Nc1ccc(F)c(C(=O)Nc2cnc3cc(-c4cccc(N5CCN(C)CC5)c4)nn3c2)c1F [Example 11, 2,6-difluoro-N-(2-(3-(4-methylpiperazin-1-yl)phenyl)pyrazolo[1,5-a]pyrimidin-6-yl)-3-(propylsulfonamido)benzamide]
- IC50 [1]: 9.55 nM
- IC50 (V600E full-length B-Raf; [2]): 4.09 nM
- IC50 (V600E full-length B-Raf; bound stated): < 150 nM

SMILES: CCCS(=O)(=O)Nc1ccc(F)c(C(=O)Nc2cnc3cc(N4CCCC4)nn3c2)c1F [Example 17, 2,6-difluoro-3-(propylsulfonamido)-N-(2-(pyrrolidin-1-yl)pyrazolo[1,5-a]pyrimidin-6-yl)benzamide]
- IC50 [1]: 664 nM
- IC50 (V600E full-length B-Raf; [2]): 367 nM

SMILES: COc1cc2ncc(NC(=O)c3c(Cl)ccc(NS(=O)(=O)CCCF)c3F)cn2n1 [Example 22, 6-chloro-2-fluoro-3-(3-fluoropropyl-sulfonamido)-N-(2-methoxypyrazolo [1,5-a]pyrimidin-6-yl)benzamide]
- IC50 [1]: 42.8 nM
- IC50 (V600E full-length B-Raf; [2]): 7.78 nM
- IC50 (V600E full-length B-Raf; bound stated): < 150 nM

SMILES: COc1cc2ncc(NC(=O)c3c(F)ccc(NS(=O)(=O)N4CCCC4)c3F)cn2n1 [Example 24, 2,6-difluoro-N-(2-methoxypyrazolo [1,5-a]pyrimidin-6-yl)-3-(pyrrolidine-1-sulfonamido) benzamide]
- IC50 [1]: 382 nM
- IC50 (V600E full-length B-Raf; [2]): 260 nM
- IC50 (V600E full-length B-Raf; bound stated): < 300 nM

SMILES: CCCS(=O)(=O)Nc1ccc(F)c(C(=O)Nc2cnc3cc(OCCOC)nn3c2)c1Cl [Example 34, 2-chloro-6-fluoro-N-(2-(2-methoxyethoxy)pyrazolo[1,5-a]pyrimidin-6-yl)-3-(propylsulfonamido) benzamide]
- IC50 [1]: 126 nM
- IC50 (V600E full-length B-Raf; [2]): 46.1 nM
- IC50 (V600E full-length B-Raf; bound stated): < 150 nM
